Blank lines part the entries; values can stand above or below the compound they belong to.
Key:
[1] = test system: cytochrome P450 enzyme (CP1A2, 2C9, 2D6, 3A4, CYP2C19); assay: Cytochrome P450 inhibition; type: in vitro ADME; settings: CP1A2, 2C9, 2D6 and 3A4
[2] = test system: LAB 110 EATRO strain of T. b. brucei; assay: Acute Murine Model A; type: in vivo, Swiss Webster mice; settings: for mice parasite free: ip, BID for 4 days; for T. brucei Minimum Effective Dose: bid × 4 days
Description: Female Swiss Webster mice were inoculated with 250,000 parasites of the LAB 110 EATRO strain of T. b. brucei. 24 hrs post-infection, treatment was initiated BID for 4 days with 20 mg/kg/dose (40 mg/kg/day) intraperitoneally (IP) or orally (PO), 5 mg/kg BID or 10 mg/kg BID orally (PO). N=3 mice/group. Mice were monitored for 30 days for survival. Pentamidine at 2 mg/kg IP was used as the positive control. After 10 days, 0% of the untreated mice were parasite free. After 10 days, 100% of mice treated with 20 mg/kg, ip, BID of 6-(4-chlorophenylsulfinyl)benzo[c][1,2]oxaborol-1(3H)-ol were parasite free. After 30 days, 100% of mice treated with 10 mg/kg, ip, BID of N-(1-hydroxy-1,3-dihydrobenzo[c][1,2]oxaborol-6-yl)-2-(trifluoromethyl)benzamide were parasite free.

[3] = In vitro metabolism, mouse/human liver microsomes; type: in vitro ADME; settings: read-out: in vitro metabolism T1/2 (Mouse/human liver microsomes)
[4] = test system: T. b. brucei or T. b. rhodesiense; assay: Acute Murine Model B; type: in vivo, BALB/C mice; settings: after 55 days; 50 mg/kg BID IP for 5 days
Description: Female BALB/C mice were inoculated with 600 parasites of T. b. brucei or 10^4 parasites of T. b. rhodesiense. 24 hrs post-infection, treatment with 6-(4-chlorophenylsulfinyl)benzo[c][1,2]oxaborol-1(3H)-ol was initiated BID for 5 days at 50 mg/kg BID intraperitoneally (IP). Mice were monitored for 40-60 days for survival. After 10 days, 20% of the untreated mice were parasite free and at 20 days, 0% of the untreated mice were parasite free. After 55 days, 100% of mice treated with 6-(4-chlorophenylsulfinyl)benzo[c][1,2]oxaborol-1(3H)-ol were parasite free.

[5] = test system: TREU 667 strain of T. b. brucei; assay: Chronic CNS Model; type: in vivo, mice
Description: Mice were infected with 10,000 parasites of the TREU 667 strain of T. b. brucei. Twenty one days post-infection mice were treated with 50 mg/kg of the compound BID for 7 days intraperitoneally (IP). Positive control mice were treated with Berenil on Day 4 post-infection. Negative control mice were treated with Berenil on Day 21. Since Berenil is not able to penetrate the CNS, mice treated at Day 21 are not able to cure the infection. Starting 1 week after the end of treatment, mice are monitored for parasitemia and sacrificed if parasites are detected in the blood. Mice that survive 6 months are considered “cured.”

[6] = In vitro metabolism, mouse S9; type: in vitro ADME; settings: S9 fraction, read-out: in vitro metabolism T1/2 (Mouse S9)
P-gp transporter = P-gp transporter (Homo sapiens, UniProt P08183); assay: P-gp transporter substrate assessment; type: in vitro ADME
P-gp transporter, sequence (P08183 whole entry): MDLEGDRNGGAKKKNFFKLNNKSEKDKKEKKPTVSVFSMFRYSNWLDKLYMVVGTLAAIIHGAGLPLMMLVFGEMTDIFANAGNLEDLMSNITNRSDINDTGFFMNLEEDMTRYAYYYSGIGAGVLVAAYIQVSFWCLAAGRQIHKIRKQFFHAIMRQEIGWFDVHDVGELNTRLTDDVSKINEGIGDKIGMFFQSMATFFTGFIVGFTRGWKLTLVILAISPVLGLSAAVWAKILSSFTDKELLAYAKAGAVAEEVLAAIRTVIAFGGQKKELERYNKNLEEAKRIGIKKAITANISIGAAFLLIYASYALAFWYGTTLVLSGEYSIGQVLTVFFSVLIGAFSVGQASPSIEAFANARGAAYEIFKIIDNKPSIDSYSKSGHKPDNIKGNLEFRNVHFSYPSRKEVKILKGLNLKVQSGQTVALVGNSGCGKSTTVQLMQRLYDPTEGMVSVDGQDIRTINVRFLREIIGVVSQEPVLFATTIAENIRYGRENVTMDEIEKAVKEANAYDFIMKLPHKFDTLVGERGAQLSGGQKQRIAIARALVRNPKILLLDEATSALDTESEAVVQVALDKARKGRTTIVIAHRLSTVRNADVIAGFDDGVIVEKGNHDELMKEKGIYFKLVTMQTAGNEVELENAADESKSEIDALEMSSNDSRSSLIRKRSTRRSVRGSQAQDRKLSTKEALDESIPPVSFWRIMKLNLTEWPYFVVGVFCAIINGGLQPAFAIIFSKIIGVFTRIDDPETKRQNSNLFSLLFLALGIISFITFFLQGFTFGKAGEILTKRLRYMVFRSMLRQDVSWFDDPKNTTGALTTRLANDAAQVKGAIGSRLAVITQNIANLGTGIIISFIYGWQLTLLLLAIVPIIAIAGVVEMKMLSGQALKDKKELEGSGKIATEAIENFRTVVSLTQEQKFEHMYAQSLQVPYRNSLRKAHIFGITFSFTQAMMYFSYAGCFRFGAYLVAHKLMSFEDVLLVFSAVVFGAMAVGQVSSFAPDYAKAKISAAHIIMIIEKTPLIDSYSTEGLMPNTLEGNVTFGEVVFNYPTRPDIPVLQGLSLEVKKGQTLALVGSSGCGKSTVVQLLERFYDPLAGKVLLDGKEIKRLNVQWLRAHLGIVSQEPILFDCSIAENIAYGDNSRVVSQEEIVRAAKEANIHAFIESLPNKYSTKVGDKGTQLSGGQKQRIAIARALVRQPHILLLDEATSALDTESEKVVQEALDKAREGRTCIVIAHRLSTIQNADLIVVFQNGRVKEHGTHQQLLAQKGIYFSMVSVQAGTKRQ

[7] = test system: L. infantum MHOM/MA(BE)/67; assay: Leishmania infantum macrophage screening assay; type: cell-based; settings: 120 h, primary screen, reference drugs, primary peritoneal mouse macrophages, 5 days incubation
Description: Parasite and cell cultures. Two Leishmania species (L. infantum MHOM/MA(BE)/67 and L. donovani MHOM/ET/67/L82) were used. The strains were maintained in the Golden Hamster (Mesocricetus auratus). Amastigotes were collected from the spleen of an infected donor hamster using three centrifugation purification steps (300 rpm, keeping the supernatant, 2200 rpm, keeping the supernatants and 3500 rpm, keeping the pellet) and spleen parasite burdens were assessed using the Stauber technique (Stauber L A., Exp Parasitol. 18: 1-11 (1966)). Primary peritoneal mouse macrophages were used as host cell and were collected 2 days after peritoneal stimulation with a 2% potato starch suspension. […]
Assays were performed in 96-well microtiter plates, each well contained 10 μl of the compound dilutions together with 190 μl of macrophage/parasite inoculum (3×10^3 cells+4.5×10^5 parasites/well). […] After 5 days incubation, parasite burdens (mean number of amastigotes/macrophage) were microscopically assessed after staining the cells with a 10% Giemsa solution. The results were expressed as % reduction in parasite burden compared to untreated control wells and an IC50 (50% inhibitory concentration) was calculated. […]
Leishmania infantum MHOM/MA(BE)/67 and L. donovani MHOM/ET/67/L82 strains were used and the IC50-values were determined using an extended dose range (2-fold compound dilutions). […]

inhibition of a cytochrome P450 enzyme [1]: does not inhibit | half-life [3]: > 5.83 h
SMILES: [O-][S+](c1ccc(Cl)cc1)c1ccc2c(c1)B(O)OC2 (stereo not shown) [6-(4-chlorophenylsulfinyl)benzo[c][1,2]oxaborol-1(3H)-ol]
mice parasite free ([2]; after 10 days, 20 mg/kg): 100% | mice parasite free [4]: 100%

SMILES: N=C(N)c1ccc(/N=N/Nc2ccc(C(=N)N)cc2)cc1 [Diminazene, reference compound]
day by which all animals relapsed to exhibit blood parasitemia ([5]; treated on Day 21 post-infection): ≤ 53 days

SMILES: O=C(Nc1ccc2c(c1)B(O)OC2)c1ccccc1C(F)(F)F [H1, N-(1-hydroxy-1,3-dihydrobenzo[c][1,2]oxaborol-6-yl)-2-(trifluoromethyl)benzamide]
T. brucei Minimum Effective Dose ([2]; route ip): 10 mg/kg, bid × 4 days

SMILES: O=C(Nc1ccc2c(c1)B(O)OC2)c1ccccc1Cl [H7, 2-Chloro-N-(1-hydroxy-1,3-dihydro-benzo[c][1,2]oxaborol-6-yl)-benzamide]
mice parasite free for at least 100 days ([5]; additional results): 100% | T. brucei Minimum Effective Dose ([2]; route po): 10 mg/kg, bid × 4 days

SMILES: O=C(Nc1ccc2c(c1)B(O)OC2)c1cc(F)ccc1C(F)(F)F [H17, 5-Fluoro-N-(1-hydroxy-1,3-dihydro-benzo[c][1,2]oxaborol-6-yl)-2-trifluoromethyl-benzamide]
mice parasite free for at least 60 days ([5]; additional results): 100% | T. brucei Minimum Effective Dose ([2]; route po): 5 mg/kg, bid × 4 days

SMILES: O=C(Nc1ccc2c(c1)B(O)OC2)c1ccc(F)cc1C(F)(F)F [H19, 4-Fluoro-N-(1-hydroxy-1,3-dihydro-benzo[c][1,2]oxaborol-6-yl)-2-trifluoromethyl-benzamide]
mice parasite free for at least 100 days ([5]; additional results): 100% | T. brucei Minimum Effective Dose ([2]; route po): 5 mg/kg, bid × 4 days

inhibition of a cytochrome P450 enzyme [1]: does not inhibit | half-life [6]: 3.33 to 3.75 h | half-life [3]: 5.67 to 6 h | substrate for the P-gp transporter (P-gp transporter): not a substrate
SMILES: O=C(Nc1ccc2c(c1)B(O)OC2)c1ccccc1C(F)(F)F [N-(1-hydroxy-1,3-dihydrobenzo[c][1,2]oxaborol-6-yl)-2-(trifluoromethyl)benzamide]
mice with absence of blood parasites through Day 91 ([5]; 50 mg/kg BID for 7 days IP, starting at Day 21 post-infection): 70% | mice parasite free ([2]; after 30 days, 10 mg/kg): 100%

IC50 [7]: 4.3 µM
SMILES: CCCCCCCCCCCCCCCCOP(=O)([O-])OCC[N+](C)(C)C [miltefosin]

— patent publication US9493489B2, “Boron-containing small molecules as anti-protozoal agents” (Anacor Pharmaceuticals, Inc., priority 2008, dated 2016)
